Measurements taken from patent publication US20190328667A1, “DRUG-POLYMER PARTICLES WITH SUSTAINED RELEASE PROPERTIES” (University of Washington, priority 2016, published 2019).

Key:
[1] = cited from earlier work
[2] = Maximum lopinavir concentration in suspension after thermal treatment (LC-MS/MS); format: physicochemical; conditions: after thermal treatment (melt-quench), normalized to lopinavir content
Experimental: Lopinavir in suspension was measured in μg/mL.

| Maximum drug concentration in suspension [2] [µg/mL] | SMILES | Log D [1] |
| --- | --- | --- |
|  | Nc1ccn([C@@H]2CS[C@H](CO)O2)c(=O)n1 [Lamivudine, lamivudine] | −1.1 |
| 322.00 | Cc1cccc(C)c1OCC(=O)N[C@@H](Cc1ccccc1)[C@@H](O)C[C@H](Cc1ccccc1)NC(=O)[C@H](C(C)C)N1CCCNC1=O [Lopinavir (amorphous), lopinavir] |  |
|  | Cc1cccc(C)c1OCC(=O)N[C@@H](Cc1ccccc1)[C@@H](O)C[C@H](Cc1ccccc1)NC(=O)[C@H](C(C)C)N1CCCNC1=O [Lopinavir, lopinavir] | 4.6 |
|  | CC(C)c1nc(CN(C)C(=O)N[C@H](C(=O)N[C@@H](Cc2ccccc2)C[C@H](O)[C@H](Cc2ccccc2)NC(=O)OCc2cncs2)C(C)C)cs1 [Ritonavir, ritonavir] | 5.7 |
